Laboratory results published in article PMC5298231, “The Malaria Parasite's Lactate Transporter PfFNT Is the Target of Antiplasmodial Compounds Identified in Whole Cell Phenotypic Screens” (PLoS Pathogens, 2017).
Read-outs that look alike come from different tables or passages of the source. Peptide text beside a SMILES is read from it.

System: erythrocytes infected with 3D7 trophozoites
Format: cell-based, Plasmodium falciparum

Row | Structure (SMILES) | Ratio of metabolite abundance, Exp1_1hr (sheet Ratio, Exp1, 1hr) | Ratio of metabolite abundance, Exp1_3hr (sheet Ratio, Exp1, 3hr) | Ratio of metabolite abundance, Exp1_6hr (sheet Ratio, Exp1, 6hr) | Ratio of metabolite abundance, Exp2_1hr (sheet Ratio, Exp2, 1hr) | Ratio of metabolite abundance, Exp2_3hr (sheet Ratio, Exp2, 3hr) | Ratio of metabolite abundance, Exp2_6hr (sheet Ratio, Exp2, 6hr) | Ratio of metabolite abundance, Exp3_1hr (sheet Ratio, Exp3, 1hr) | Ratio of metabolite abundance, Exp3_3hr (sheet Ratio, Exp3, 3hr) | Ratio of metabolite abundance, Exp3_6hr (sheet Ratio, Exp3, 6hr) | further results
1 | CC(C)C[C@H](NC(=O)[C@H](C)NC(=O)[C@@H](N)CC(=O)O)C(=O)N[C@H](C(=O)O)[C@@H](C)O [DALT] (H-DALT-OH) | 0.634 | 0.4153 | 1.635 | 0.755 | 0.5469 | 1.439 | 0.7343 | 0.6802 | 1.903 | 
2 | CC(O)C(=O)O (stereo not drawn) [Lactate] | 8.023 | 5.339 | 5.015 | 5.913 | 7.877 | 8.247 | 2.842 | 5.6661 | 4.424 | 
3 | CC(C)C[C@H](N)C(=O)N[C@@H](CC(=O)O)C(=O)O [LD] (H-Leu-Asp-OH) | 1.295 | 0.7458 | 0.9103 | 1.486 | 1.077 | 1.185 | 1.151 | 1.268 | 1.201 | 
4 | O=C(O)CCC(O)C(=O)O (stereo not drawn) [2-Hydroxyglutarate] | 0.7468 | 0.6009 | 0.699 | 0.8783 | 0.8007 | 0.7015 | 0.9193 | 0.5841 | 0.9208 | 
5 | Nc1ncnc2c1ncn2[C@@H]1O[C@H](COP(=O)(O)OP(=O)(O)O)[C@@H](O)[C@H]1O [ADP] | 0.7745 | 0.4477 | 0.5852 | 1.167 | 0.7455 | 0.8713 | 0.9108 | 0.6751 | 1.045 | 
6 | Nc1ncnc2c1ncn2[C@@H]1O[C@H](COP(=O)(O)O)[C@@H](O)[C@H]1O [AMP] | 0.6651 | 0.4095 | 0.7534 | 1.745 | 0.5002 | 0.6205 | 1.254 | 1.491 | 1.967 | 
7 | O=C(O)CCC(=O)O [Succinate] |  |  |  |  |  |  |  |  |  | Log2 Exp1_1hr: 0.7494; Log2 Exp1_3hr: -0.1278; Log2 Exp1_6hr: -0.06195; Log2 Exp2_1hr: 0.5818; Log2 Exp2_3hr: -0.0254; Log2 Exp2_6hr: 0.5995; Log2 Exp3_1hr: 0.1613; Log2 Exp3_3hr: -0.5854; Log2 Exp3_6hr: 0.007182; Ratio of metabolite abundance, Exp1_1hr: 1.681; Ratio of metabolite abundance, Exp1_3hr: 0.9152; Ratio of metabolite abundance, Exp1_6hr: 0.958; Ratio of metabolite abundance, Exp2_1hr: 1.497; Ratio of metabolite abundance, Exp2_3hr: 0.9825; Ratio of metabolite abundance, Exp2_6hr: 1.515; Ratio of metabolite abundance, Exp3_1hr: 1.118; Ratio of metabolite abundance, Exp3_3hr: 0.6665; Ratio of metabolite abundance, Exp3_6hr: 1.005
